Laboratory results taken from ChEMBL document CHEMBL4270556, “Current progress on antioxidants incorporating the pyrazole core” (Eur J Med Chem, 2018).
Values after ≈ are worked out from the molar mass of the structure shown.

Key:
[1] = Antioxidant activity assessed as DPPH radical scavenging activity after 20 mins by UV absorbance method relative to control; assay type: functional
[2] = Antioxidant activity assessed as DPPH radical scavenging activity at 4 mM relative to control; assay type: functional
[3] = Antioxidant activity assessed as ferric ion reducing activity after 20 mins in presence of potassium ferricyanide by FRAP assay relative to control; assay type: functional; set-up: scale not given: the % may be the effect or the level left
[4] = Antioxidant activity assessed as nitric oxide radical scavenging activity at 100 mM after 150 mins in presence of sodium nitroprusside relative to control; assay type: functional
[5] = Antioxidant activity assessed as DPPH radical scavenging activity at 100 mM after 30 mins relative to control; assay type: functional
[6] = Antioxidant activity assessed as radical scavenging activity at 30 to 50 ug/ml relative to control; assay type: functional
[7] = Antioxidant activity assessed as radical scavenging activity; assay type: functional
[8] = Antioxidant activity assessed as inhibition of lipid peroxidation relative to control; assay type: functional; conditions: dose or concentration not given here
[9] = Antioxidant activity assessed as DPPH radical scavenging activity at 40 ug/ml relative to control; assay type: functional
[10] = Antioxidant activity assessed as DPPH radical scavenging activity at 20 ug/ml relative to control; assay type: functional
[11] = Antioxidant activity assessed as DPPH radical scavenging activity at 60 ug/ml relative to control; assay type: functional
[12] = Antioxidant activity assessed as DPPH radical scavenging activity at 80 ug/ml relative to control; assay type: functional
[13] = Antioxidant activity assessed as inhibition of lipid peroxidation; assay type: functional
[14] = Antioxidant activity assessed as hydroxyl radical scavenging activity; assay type: functional
THP-1 = experiment: Antioxidant activity in human THP1 cells assessed as inhibition of macrophage-mediated LDL oxidation after 24 hrs in presence of CuSO4 by TBARS assay; assay type: functional, cell-based; conditions: THP-1, 24 h
[15] = Antioxidant activity assessed as DPPH radical scavenging activity at 10 ug/ml after 20 mins by UV absorbance method relative to control; assay type: functional
[16] = Antioxidant activity assessed as inhibition of DPPH radical at 100 ug/ml relative to control; assay type: functional
[17] = Antioxidant activity assessed as DPPH radical scavenging activity at 10^-3 M relative to control; assay type: functional
[18] = Antioxidant activity assessed as DPPH radical scavenging activity at 30 to 50 ug/ml relative to control; assay type: functional

SMILES: Clc1ncnc2c1ncn2CC1CC(C2=NNC(Cn3cnc4c(Cl)ncnc43)C2)=NN1 (stereo not drawn)
- Activity [1]: 62 to 79%

SMILES: Oc1c(Cl)cc(Cl)cc1C1Nc2ccccc2-c2cc(-c3ccccc3)nn21 (stereo not drawn)
- Activity [2]: 99%

SMILES: O=C(/C=C/c1cn(-c2ccccc2)nc1-c1ccccc1)c1cccc(NC(=O)c2ccc(F)cc2)c1
- Activity [3]: 44.4 to 55.5%
- Activity [4]: 32.4 to 77.9%
- Activity [5]: 36.8 to 42.3%

SMILES: COc1ccc(C2=NN(c3ccccc3)[C@H]3C(=O)N(c4ccccc4)C(=O)[C@@H]23)cc1OC
- Activity [6]: < 55%

SMILES: O=C(/C=C/c1cn(-c2ccccc2)nc1-c1ccc(F)cc1)c1cccc(NC(=O)c2ccc(F)cc2)c1
- Activity [4]: 32.4 to 77.9%
- Activity [5]: 33.3%

SMILES: Nc1[nH]nc(NCc2ccccc2)c1-c1ccc([N+](=O)[O-])cc1
- IC50 [7]: 800 µg/mL (≈ 2590 µM)

SMILES: Cc1ccc(N2N=C(c3ccccc3)CC2Cn2cnc3c(N4CCCC4)ncnc32)cc1 (stereo not drawn)
- inhibition [8]: 49%
- Activity [1]: 43 to 44%

SMILES: CCOC(=O)C1=C(N)Oc2c(c(C)nn2C(=O)c2ccncc2)C1c1c(-c2ccc(C)cc2)[nH]c2ccccc12 (stereo not drawn)
- Activity [9]: 79.6%
- Activity [10]: 80.1%
- Activity [11]: 76.1%
- Activity [12]: 76.1%

SMILES: CCOC(=O)C1=C(N)Oc2c(c(C)nn2C(=O)c2ccncc2)C1c1c(-c2ccc(C)cc2)[nH]c2ccc(Cl)cc12 (stereo not drawn)
- Activity [10]: 66.6 to 76.1%

SMILES: Cc1c(C)c2c(c(C)c1O)CCC(C)(C(=O)O)O2 (stereo not drawn)
- inhibition [8]: 64%

SMILES: Oc1cc(O)c2c(c1)O[C@H](c1ccc(O)c(O)c1)[C@@H](O)C2 [CIANIDANOL]
- IC50 [13]: 1440 µM
- IC50 [14]: 2930 µM

SMILES: CC(C)(C)c1cc(C2=NNC(c3cc(C(C)(C)C)c(O)c(C(C)(C)C)c3)C2)cc(C(C)(C)C)c1O (stereo not drawn)
- IC50 (THP-1): 0.1 µM

SMILES: Clc1ncnc2c1ncn2CC1CC(c2ccccc2)=NN1c1ccccc1 (stereo not drawn)
- inhibition [8]: 94%
- Activity [1]: 13 to 24%

SMILES: CC(C)(C)OC(=O)N1CCN(c2ncnc3c2ncn3CC2CC(c3ccccc3)=NN2c2ccccc2)CC1 (stereo not drawn)
- inhibition [8]: 54%
- Activity [1]: 13 to 24%

SMILES: Cc1ccc(N2N=C(c3ccccc3)CC2Cn2cnc3c(N4CCOCC4)ncnc32)cc1 (stereo not drawn)
- inhibition [8]: 5.8%
- Activity [1]: 43 to 44%

SMILES: O=C(c1ccc(Cl)cc1)N1N=C(Cn2c3ccccc3c3nc4cc(Cc5ccc6nc(-c7ccccc7)c(-c7ccccc7)nc6c5)ccc4nc32)CC1c1ccc(F)cc1 (stereo not drawn)
- Activity [15]: 40.6%

SMILES: CCOC(=O)c1c(C)nn(-c2ccccc2)c1-c1ccc(N(C)C)cc1
- inhibition [16]: 22.2 to 49.9%

SMILES: NS(=O)(=O)c1ccc(-n2nc(-c3cccs3)cc2-c2cnn(-c3ccccc3)c2)cc1
- Activity [17]: 12%

SMILES: O=C(c1ccccc1)N1N=C(Cn2c3ccccc3c3nc4cc(Cc5ccc6nc(-c7ccccc7)c(-c7ccccc7)nc6c5)ccc4nc32)CC1c1ccc(F)cc1 (stereo not drawn)
- Activity [15]: 45.5%

SMILES: Cc1ccc(-c2cc(C(F)(F)F)nn2-c2ccc(S(N)(=O)=O)cc2)cc1 [CELECOXIB]
- IC50 [13]: 1990 µM
- IC50 [14]: 1970 µM

SMILES: O=S(=O)(NC(=S)Nc1ccc(F)cc1)c1ccc(N2N=C(c3ccco3)CC2c2cnn(-c3ccccc3)c2)cc1 (stereo not drawn)
- Activity [17]: 27%

SMILES: CCOC(=O)C1=C(N)Oc2c(c(C)nn2C(=O)c2ccncc2)C1c1c(-c2ccccc2)[nH]c2ccccc12 (stereo not drawn)
- Activity [9]: 66.6 to 76.1%
- Activity [11]: 74.5%
- Activity [12]: 70.2%

SMILES: O=[N+]([O-])c1cccc(C2Nc3ccccc3-c3cc(-c4ccccc4)nn32)c1 (stereo not drawn)
- Activity [2]: 96%

SMILES: O=C1[C@H]2C(c3ccc(Cl)cc3)=NN(c3ccccc3)[C@H]2C(=O)N1c1ccccc1
- Activity [6]: < 40%

SMILES: Cc1ccc(-c2nn(-c3ccccc3)cc2/C=C/C(=O)c2cccc(NC(=O)c3ccc(F)cc3)c2)cc1
- Activity [3]: 44.4 to 55.5%
- Activity [4]: 32.4 to 77.9%
- Activity [5]: 36.8 to 42.3%

SMILES: O=C1[C@H]2C(c3ccccc3)=NN(c3ccccc3)[C@H]2C(=O)N1c1ccccc1
- Activity [6]: < 55%

SMILES: COc1ccc(C2CC(Cn3c4ccccc4c4nc5cc(Cc6ccc7nc(-c8ccccc8)c(-c8ccccc8)nc7c6)ccc5nc43)=NN2C(=O)c2ccc(Cl)cc2)cc1 (stereo not drawn)
- Activity [15]: 59.4%

SMILES: Cc1ccc(-n2nc(-c3ccccc3)cc2Cn2cnc3c(N4CCOCC4)ncnc32)cc1
- inhibition [8]: 99%
- Activity [1]: 62 to 79%

SMILES: O=C1O[C@H]([C@@H](O)CO)C(O)=C1O
- Activity [3]: 42.4%
- inhibition [16]: 28.6%
- Activity [4]: 32.3%
- Activity [5]: 43%
- Activity [15]: 40%
- Activity: 92.7%

SMILES: COc1ccc(C2=NN(c3ccccc3)[C@H]3C(=O)N(c4ccccc4)C(=O)[C@@H]23)cc1
- Activity [6]: < 55%

SMILES: O=C(Nc1ccc(Cl)cc1)NS(=O)(=O)c1ccc(N2N=C(c3ccco3)CC2c2cnn(-c3ccccc3)c2)cc1 (stereo not drawn)
- Activity [17]: 16%

SMILES: COc1ccc(C2C(c3ccc(OC)c(OC)c3)=NN(c3ccccc3)C2C#N)cc1 (stereo not drawn)
- Activity [18]: 32%

SMILES: Nc1n[nH]c(-c2ccccc2)c1-c1nc2c(cnn2-c2ccccc2)c(=O)[nH]1
- Activity: 92.3%

SMILES: O=C1[C@H]2C(c3ccccc3)=NN(c3ccccc3)[C@H]2C(=O)N1c1ccc(Cl)cc1
- Activity [6]: < 40%

SMILES: Cc1ccc(-n2nc(-c3ccccc3)cc2Cn2cnc3c(N4CCCC4)ncnc32)cc1
- inhibition [8]: 87%
- Activity [1]: 43 to 44%
